According to patent US8865138B2, “Melanin modification compositions and methods of use” (Allergan, Inc., priority 2011, dated 2014):

Tested on: PGF2 alpha
Assay: Inhibition of prostaglandin F2 alpha levels in UVB-exposed keratinocytes (ELISA)
Type: cell-based
Conditions: UVB-induced human keratinocytes; PGF2 alpha measured by ELISA 24 hours post-treatment; FIG. 1
Experimental: Human keratinocytes were harvested and exposed to with UVB light to induce PGF2 alpha release. Following exposure to UVB irradiation, the cells were treated with a composition comprising 1% 4-ethoxybenzaldehyde, Indomethacin (positive control) or left untreated (negative control). After 24 hours post-treatment, PGF2 alpha levels were measured by ELISA analysis.

CCOc1ccc(C=O)cc1 [4-ethoxybenzaldehyde]
inhibition of PGF2 alpha: dose-dependent inhibition
